How the values were obtained:
T47D cells = assay: R5020-induced proliferation by BrdU incorporation; assay type: cell-based; settings: 1.5 µM, 24 h after R5020
Protocol: T47D^M cells (1 × 10^4) were plated in a 96-well plate in the presence or absence of inhibitors 2 h prior to R5020 addition. The cell proliferation ELISA BrdU chemiluminescent assay (Roche) was performed according to the manufacturer’s instructions 24 h following hormone addition.

NUDT5 in HL-60 cells = target: T1, NUDT5 in HL-60 cells (Homo sapiens, UniProt Q9UKK9); assay: CETSA melt curve (apparent Tagg); assay type: cell-based
T1 construct: endogenous in cells; host or cells: HL-60
Protocol: For CETSA experiments with cells treated in culture, 1 × 10^6 HL-60 were treated with DMSO (0.1 % v/v final) or 20 µM compound for 3 h at 37 °C and 5% CO2 in a humidified incubator. T47D^WT cells were treated instead with 80 µM TH1659, 15 µM TH5423/5424 and 1.5 µM TH5427. The cells were harvested, washed twice with PBS and resuspended in TBS with protease inhibitors, as above. Heating was identical as before, except that immediately following heating, the cell suspensions were snap frozen in a dry ice/ethanol bath and freeze-thawed, as previously, to lyse cells. Centrifugation at 20 000 × g for 20 min at 4 °C removed cellular debris and protein aggregates, and lysates were prepared for western blotting. […]
Supplementary Figure 6: Thermal shift of NUDT5 with TH5427 by CETSA.
CETSA melt curve comparing DMSO-treated HL-60 cells to those treated with 2.5 or 20 µM TH5427. All points are shown for n=2 experiments and are normalized to SOD1 band intensity as a loading control. Representative, cropped western blots are shown. Apparent Tagg temperatures are shown below. […]

MTH1 = MTH1 (Homo sapiens, UniProt P36639); assay: CETSA melt curve for MTH1; assay type: cell-based; set-up: endogenous in cells; settings: 20 µM
Protocol: For CETSA experiments with cells treated in culture, 1 × 10^6 HL-60 were treated with DMSO (0.1 % v/v final) or 20 µM compound for 3 h at 37 °C and 5% CO2 in a humidified incubator. T47D^WT cells were treated instead with 80 µM TH1659, 15 µM TH5423/5424 and 1.5 µM TH5427. The cells were harvested, washed twice with PBS and resuspended in TBS with protease inhibitors, as above. Heating was identical as before, except that immediately following heating, the cell suspensions were snap frozen in a dry ice/ethanol bath and freeze-thawed, as previously, to lyse cells. Centrifugation at 20 000 × g for 20 min at 4 °C removed cellular debris and protein aggregates, and lysates were prepared for western blotting.

NUDT14 = target: T2, NUDT14 (Homo sapiens, UniProt O95848); assay: phosphohydrolase selectivity, malachite green assay; assay type: biochemical
T2 construct: His-tag (N); made in house; host or cells: E. coli BL21 (DE3) R3 pRARE2
T2 sequence (O95848 1-222): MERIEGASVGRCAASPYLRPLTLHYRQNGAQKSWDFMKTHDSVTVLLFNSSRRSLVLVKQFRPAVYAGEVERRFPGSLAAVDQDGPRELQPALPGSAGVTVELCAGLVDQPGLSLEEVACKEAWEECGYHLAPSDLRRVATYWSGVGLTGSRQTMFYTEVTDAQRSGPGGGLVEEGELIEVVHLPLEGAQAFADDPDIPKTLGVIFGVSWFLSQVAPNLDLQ
Protocol: (§1) The selectivity assay for TH5427 against similar pyrophosphohydrolases was performed with MTH1, NUDT9, NUDT2, NUDT12, NUDT14, NUDT15, NUDT18, ITPase, dCTPase and dUTPase[9]. All analyses were performed by malachite green assay following 30 min incubation at room temperature in reaction buffer (100 mM Tris Acetate, pH 7.5, 40 mM NaCl, 10 mM MgAc, 1 mM DTT) with 100 µM TH5427 and preferred substrates for each enzyme (4.75 nM MTH1 with 100 µM dGTP, 8 nM NUDT15 with 100 µM dGTP, 8 nM NUDT2 with 16 µM AP4A, 2 nM NUDT5 with 50 µM ADPR, 20 nM NUDT9 with 50 µM ADPR, 20 nM NUDT12 with 50 µM NADH, 2 nM NUDT14 with 50 µM ADPR, 200 nM NUDT18 with 50 µM 8-oxo-dGTP, 0.2 nM ITPase with […], 35 nM dCTPase with 35 µM dCTP, and 1 nM dUTPase with 12.5 µM dUTP). MTH1, NUDT15, NUDT18, ITPase, dCTPase and dUTPase reactions were coupled with 0.2 U/mL pyrophosphatase, while NUDT2, NUDT5, NUDT9, NUDT12, and NUDT14 reactions were coupled by bovine intestinal phosphatase (10 U/mL).

dCTPase = target: T3, dCTPase (Homo sapiens, UniProt Q9H773); assay: as above; assay type: biochemical
T3 construct: His-tag (N, cleaved yes); made in house; host or cells: E. coli BL21 (DE3) R3 pRARE2
T3 sequence (Q9H773 1-170): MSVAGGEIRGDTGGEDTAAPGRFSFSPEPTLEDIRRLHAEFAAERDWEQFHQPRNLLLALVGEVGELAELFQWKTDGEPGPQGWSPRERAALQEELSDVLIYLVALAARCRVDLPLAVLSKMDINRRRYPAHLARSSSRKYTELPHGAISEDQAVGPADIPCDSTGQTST
Protocol: as §1

In the case of `Cn1c(=O)c2c(nc(N3CCNCC3)n2Cc2nnc(-c3ccc(Cl)c(Cl)c3)o2)n(C)c1=O` [TH5427], the “progestin-dependent proliferation, BrdU incorporation” value (T47D cells) was “abrogated the progestin-dependent proliferation response”, the “shift of NUDT5 apparent Tagg” value (NUDT5 in HL-60 cells) was “≈ 8 °C” and the “thermal shift of MTH1 by CETSA” value (MTH1) was “no thermal shift”. For the same molecule, the inhibition at 100 µM (NUDT14) was 38% and the inhibition at 100 µM (dCTPase) was 39%.
